Measured values taken from patent US5376676A (Allergan, Inc., priority 1991, dated 1994).

Columns and labels:
[1] = molecular target: bee venom phospholipase A2 (Apis mellifera, UniProt P00630); assay: biochemical; settings: read-out: IC50 PLA2
[2] = molecular target: phosphoinositide-specific phospholipase C; assay: Inhibition of phosphoinositide-specific phospholipase C assay (PLC); format: biochemical
Description: Inhibition of Phosphoinositide-specific Phospholipase C
The effect of compounds of this invention on phosphoinositide-specific phospholipase-C may be determined by procedures described by Bennett et al, Molecular Pharmacology 32:587-593 (1987).

[3] = tested on: Ca2+ channel mobilization (KCl induced); assay: Calcium channel (mobilization) inhibition assay, KCl induced; format: cell-based
Description: (§1) Calcium Channel (Mobilization) Inhibition Assay
(§2) Polymorphonuclear leukocytes (PMNa), gastric glands, GH3 cells, A431 cells, spleen cells, human keratinocytes corneal cells, etc. were loaded with the Ca^2+ sensitive fluorescent dye, Fura-2. The appropriate cell type was chosen and the potency and efficacy of the anti-inflammatory furanones on calcium mobilization, calcium channel inhibition quantitated. The methods used for A431 cells listed below are representative of those used for other cells.
(§3) A431 cells were detached using a 5-10 min trypsin-EDTA treatment whereas GH3 cells were treated 2 to 5 min with a 1% pancreatin solution. Cells were immediately washed twice in a 20 mM HEPES buffer (pH 7.4) containing 120 mM NaCl, 6 mM KCl, 1 mM MgSO4, 1 mg/ml glucose and 1 mg/ml pyruvate and 1.4 mM calcium (medium A). Approximately 5×10^6 cells were suspended in medium A and incubated with 4 μM fura-2-AM for 15 min at 37° C.
(§4) After washing the fura-2 loaded cells, the uptake of dye was checked using fluorescence micioscopy and found to be evenly distributed in the cytosol of all cells. Fluorescence was continuously recorded with a Perkin-Elmer LS-5 spectrofluorometer. The excitation wavelength was set at 340 nm and emission wavelength set at 500 nm. The cell suspension was continually stirred, maintained at 37° C. and equilibrated for approximately 5 min before addition of various agents. [Ca^2+ ]i was calculated using the following formula: [formula]
(§5) All fluorescence values were measured relative to a EGTA-quenched signal determined as follows: F was the relative fluorescence measurement of the sample. Fmax was determined by lysing the cells with digitonin (100 μg/ml) in DMSO. After Fmax was determined the pH was adjusted to 8, with NaOH and Ca^2+ chelated with 3 mM EGTA to totally quench the fura-2 signal and obtain Fmin.
(§6) When quin-2 was used, cells were Incubated with 10 μM quin-2 at 37° C. for 1 hr, washed and then used.

[4] = tested on: Ca2+ channel mobilization (TRH induced); assay: Calcium channel (mobilization) inhibition assay, TRH induced; format: cell-based; settings: for IC50: TRH induced calcium mobilization
Description: as §1, §2, §3
as §4, with “Fluorescence” for “After washing the fura-2 loaded cells, the uptake of dye was checked using fluorescence micioscopy and found to be evenly distributed in the cytosol of all cells. Fluorescence”
as §5, §6

Sequence of bee venom phospholipase A2 (P00630 34-167 limits assumed): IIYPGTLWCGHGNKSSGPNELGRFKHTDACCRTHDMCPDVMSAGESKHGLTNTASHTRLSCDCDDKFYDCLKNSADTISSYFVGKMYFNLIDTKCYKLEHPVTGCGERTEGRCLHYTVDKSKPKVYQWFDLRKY

`CCCCCCCCCCCCCC1=CC(=O)OC1` [Compound 1, 4-tridecyl-2(5H)-furanone] gave an IC50 [1] greater than 3300 nM, an IC50 [2] greater than 100000 nM and an IC50 [3] of 1500 nM. The IC50 [4] was 2600 nM and the “Selectivity between calcium channel inhibition and phospholipase inhibition” value ([4]; conclusion from Table 1 (Ca2+ TRH/KCl vs PLA2, PLC)) was “selective calcium channel inhibitor”.

`CCCCCCCCCCCCCC1=CC(=O)OC1O` (stereo not drawn) [Compound 2, 4-tridecyl-5-hydroxy-2(5H)-furanone] was tested, and the IC50 [1] was 90 nM, the IC50 [2] was greater than 100000 nM and the IC50 [3] was 3000 nM. For the same compound, the IC50 [4] was 3000 nM.

With `CC1=C(CC/C(C)=C/CCC2=CCC(C3=CC(=O)OC3O)OC2O)C(C)(C)CCC1` (stereo not drawn) [manoalide, reference compound] the IC50 [2] was 3000 nM, the IC50 [3] was 800 nM and the IC50 [4] was 600 nM.
